Assay results from US11759444B2, “Methods for cancer and immunotherapy using prodrugs of glutamine analogs” (The Johns Hopkins University, priority 2015, dated 2023).
Entries after “also recorded” stand apart in the source; their conditions may differ. Read-outs that look alike come from different tables or passages of the source.

What was measured:
[1] = In vitro plasma stability, pig plasma; format: in vitro ADME
[2] = In vitro plasma stability, dog plasma; format: in vitro ADME
[3] = Plasma and CSF pharmacokinetics in monkeys, i.v.; format: in vivo, pigtail macaques; conditions: monkey
Description: All monkey studies were conducted according to protocol (#PR15M298) approved by the Animal Care and Use Committee at Johns Hopkins University. Two female pigtail monkeys (approximately 3.5 kg, non-drug naive) were adjacently housed in stainless steel cages on a social interaction rack (contains 4 cages, each 32.5″ wide×28″ deep×32″ high) maintaining temperature of 64-84° F., humidity of 30-70% with alternating 14-10 hour light/dark cycle as per the USDA Animal Welfare Act (9 CFR, Parts 1, 2, and 3). Food was provided daily in amounts appropriate for the size and age of the animals and RO purified water provided ad libitum through an in-cage lixit valve. Food enrichment was provided Monday through Friday. […]
(§1) We have previously published a highly sensitive method for analysis of DON in biological matrices (Alt, et al., 2015). […] The mean predicted […] for back calculated concentrations of the standards and QC's for all analytes were within the range of 85 to 115%, except for the lowest concentration which was within the range of 80 to 120% with an overall accuracy and precision of 6.7% and 6.6% respectively.
Mean concentration-time data was used for pharmacokinetic analysis. […] Area under the curve (AUC) was calculated by log-linear trapezoidal rule to the end of sample collection (AUClast). […]

[4] = Plasma and CSF pharmacokinetics in swine, i.v. infusion; format: in vivo, Göttingen×Yucutan miniature swine; conditions: 60 min post-administration
[5] = In vitro plasma stability, mouse plasma
[6] = In vitro plasma stability, human plasma
[7] = In vitro plasma stability, monkey plasma
[8] = Brain and plasma pharmacokinetics in mice, oral; format: in vivo, C57BL/6 mice; conditions: 0.8 mg/kg DON equivalent
Description: All pharmacokinetic studies in mice were conducted according to protocol (#M013M113) approved by the Animal Care and Use Committee at Johns Hopkins University. C57BL/6 mice between 25 and 30 g were obtained from Harlan, and maintained on a 12 hour light-dark cycle with ad libitum access to food and water. To evaluate the brain and plasma pharmacokinetics of DON and its prodrug 5c, 8-12 week old C57BL/6 were administered DON (1; 0.8 mg/kg, p.o. in phosphate-buffered saline) and its prodrug 5c (at 0.8 mg/kg equivalent DON (1), p.o. in phosphate-buffered saline with 5% EtOH and 5% Tween-80). The mice were sacrificed by pentobarbital injection at 10, 30 and 90 minutes post drug administration, and blood was collected via cardiac puncture and placed into iced EDTA coated BD microtainers. […]
as §1
Mean concentration-time data was used for pharmacokinetic analysis. […] Area under the curve (AUC) was calculated by log-linear trapezoidal rule to the end of sample collection (AUClast).

[9] = system: U87 human glioma cells; experiment: U87 flank xenograft mouse model of GBM; format: in vivo; conditions: 0.8 mg/kg, i.p.; for GBM tumor growth: q.d. days 1-6
Description: All mouse efficacy studies were conducted according to protocol #M013M69 approved by the Animal Care and Use Committee at Johns Hopkins University. Female athymic (RH_Foxn1nu mice) mice between 25 and 30 g were obtained (Harlan Sprague Dawley Inc, Indianapolis, Ind.), and maintained on a 12 hour light-dark cycle with ad libitum access to food and water. U87 human glioma cells were injected s.c. (5×10^6 cells in […] of PBS) in four separate locations on the flanks of each mouse. When tumors grew to a mean volume of around 200 mm^3, mice were randomized into either vehicle (HEPES-buffered saline, i.p.) or DON (1; 0.8 mg/kg, i.p.). In one cohort, mice were administered a single dose of the appropriate solution two hours after which glutamine levels were quantified in the tumor as described previously.^49 In brief, tumors were harvested, snap frozen, and homogenized in liquid N2 then subjected to metabolite extraction using methanol and DI water. Quantification was performed using Agilent 6520 Quadrupole-Time-of-Flight (Q-TOF) mass spectrometer with Agilent 1290 HPLC and using Agilent Mass Hunter and Agilent Qualitative and Quantitative Analysis Software packages. Glutamine content was averaged by group for each individual tumor (n=3-4/group), depicted as relative intensity, and analyzed by one-tailed t test. In a second cohort, efficacy experiments were conducted. Mice were injected once daily for six days; tumor volumes were measured using digital calipers and calculated according to the formula: [volume=(largest tumor dimension)×(smallest tumor dimension)×0.52] at 2, 4, and 6 days after the onset of treatment. Each individual tumor (n=8-10/group) was normalized to its pretreatment volume, averaged and analyzed by repeated measures two-way analysis of variance (ANOVA). If significant, a Bonferroni post hoc test was subsequently applied. Significance was defined as p<0.05.

[10] = system: EL4 lymphoma; experiment: EL4 mouse lymphoma model; format: in vivo; conditions: monotherapy
[11] = system: B16 melanoma; experiment: B16 melanoma mouse model; format: in vivo
[12] = system: tumor cells; experiment: Oxygen consumption and lactate production of tumor cells; format: cell-based
[13] = system: TILs; experiment: CD8/Treg ratio in the tumor and hypoxia in the TILs; conditions: in vivo
[14] = cited from earlier work
[15] = Table 2, prodrug 10 μM, 60 min incubation at 37° C., values read as % prodrug remaining

CC(C)OC(=O)[C@H](CCC(=O)C=[N+]=[N-])NC(=O)O[C@H](C)OC(=O)C(C)(C)C (single isomer, unassigned) [Compound 14b]
stability in pig plasma [1]: stable
stability in dog plasma [2]: stable
CSF:plasma ratio of DON [3]: enhanced CSF:plasma ratio of DON
CSF delivery of DON [4]: substantially higher amounts of DON; also recorded: enhanced CSF delivery of DON
CSF-to-plasma ratio of DON [4]: increased CSF-to-plasma ratios; also recorded: enhanced CSF:plasma ratio of DON
metabolism in mouse plasma [5]: rapidly metabolized
PLASMA STABILITY Mouse [5, 15]: 0%
metabolism in mouse plasma ([5]; listed as 5c): completely converted to DON
stability in human plasma [6]: stable
PLASMA STABILITY Human [6, 15]: 91%
stability in human plasma ([6]; listed as 5c): stable; also recorded: excellent stability
stability in monkey plasma [7]: stable
PLASMA STABILITY Monkey [7, 15]: 61%
stability in monkey plasma ([7]; listed as 5c): stable; also recorded: excellent stability

[N-]=[N+]=CC(=O)CC[C@H](N)C(=O)O [DON, 6-diazo-5-oxo-L-norleucine]
AUC0-t of DON in brain [8]: 0.57 nmol·h/g
glutamine metabolism in flank GBM tumor (endogenous glutamine accumulation) ([9]; 2 hours post-administration): inhibited glutamine metabolism
reduction in tumor volume ([9]; q.d.): > 50%
weight loss ([9]; q.d.): 12±4.1%
GBM tumor growth [9]: halted tumor growth, but also effectively induced tumor regression
GBM tumor growth ([9]; listed as 1): dramatic reduction in tumor size
signs of toxicity ([9]; q.d., all mice receiving DON): hunching, ptosis, and lethargy
lymphoma tumor growth [10]: markedly inhibit lymphoma growth
tumor infiltrating regulatory T cells (Foxp3+) ([11]; B16 melanoma): inhibiting tumor infiltrating regulatory T cells
melanoma tumor growth ([11]; monotherapy): modest effect
lactate production of tumor cells [12]: reduces
oxygen consumption of tumor cells [12]: reduces
CD8/Treg ratio in the tumor [13]: improved the CD8/Treg ratio
hypoxia in the TILs [13]: reduces hypoxia in the TILs
clinical toxicity ([14]; human, in vivo): dose limiting toxicities, many of which were GI-related
regression or stable disease in patients ([14]; late stage adult patients, children with hematological malignancies or solid tumors): > 50%
